The values below come from US20250127790A1, “COMBINATION THERAPY USING VPS34 INHIBITORS” (Deciphera Pharmaceuticals, LLC, priority 2021, published 2025).

The subject of test [1] is 4T1 breast cancer cells. The experiment in a line: Cytokine secretion assay, combination with cGAMP, 4T1 cells. The following applies: 24 hours, 5 μM Compound 1 or 10 μM Compound 2, 10 mg/ml cGAMP. The format is cell-based, mouse. Here is the method:
(§1) 4T1 cells were treated for 24 hours with DMSO or VPS34 inhibitors (5 μM Compound 1 or 10 μM Compound 2) in combination with 10 mg/ml STING agonist cGAMP (green bars). Cells were washed with PBS and RNA was isolated using the PureLink RNA kit (#12183018A, Thermo Fisher Scientific) according to the manufacturer's protocol. Genomic DNA was removed using DNA-binding columns (RNeasy plus kit, #74134, Qiagen) and/or DNase treatment (#12185010, Thermo Fisher Scientific). RNA was quantified using NanoDrop (Thermo Fisher Scientific) and 50 ng/μL RNA was used for cDNA synthesis with SuperScript IV VILO Master Mix (#11756050, Thermo Fisher Scientific). Quantitative RT-PCR (qRT-PCR) was run with diluted cDNA (1:25 or 1:12.5), PowerUp SYBR Green Master Mix (#A25741, Thermo Fisher Scientific), and 200 nM primers (see below) on a CFX Connect RT-PCR system (BioRad). Data was analyzed using the ΔΔCT method. Results are mean±SEM of three independent experiments.
(§2) Cell culture medium was centrifuged at 1600 rpm for 10 min at 4° C. and obtained supernatant stored at −80° C. Cytokine levels were quantified using following Meso Scale Discovery (MSD) assays: mouse U-PLEX RANTES/CCL5 (#K152A2K) and U-PLEX IP-10/CXCL10 (#K152UFK). Assays were run on the SECTOR Quickplex Imager and analyzed using Discovery Workbench version 4.0 (MSD).

The test system of test [2] is 786-O renal cell carcinoma cells. The experiment in a line: Western blot, STING pathway proteins with siRNA knockdown, 786-O cells. The format is cell-based. The following applies: 24 h; for CGAS level / STING level / p-IRF3 level / p-STAT1 level / p-TKB1 level / p-IRF3 and p-STAT1 levels with siRNA knockdown of CGAS / p-TKB1 level with siRNA knockdown of CGAS / p-IRF3 and p-STAT1 levels with siRNA knockdown of STING / p-TBK1 level with siRNA knockdown of STING: 2 μM; for CGAS level / STING level / p-IRF3 level / p-STAT1 level / p-TKB1 level: vs DMSO alone; for p-IRF3 and p-STAT1 levels with siRNA knockdown of CGAS / p-TKB1 level with siRNA knockdown of CGAS: siCGAS; for p-IRF3 and p-STAT1 levels with siRNA knockdown of CGAS / p-TKB1 level with siRNA knockdown of CGAS / p-IRF3 and p-STAT1 levels with siRNA knockdown of STING / p-TBK1 level with siRNA knockdown of STING: vs compound alone; for p-IRF3 and p-STAT1 levels with siRNA knockdown of STING / p-TBK1 level with siRNA knockdown of STING: siSTING; for STING level with siRNA knockdown of TBK1 / CGAS level with siRNA knockdown of TBK1: siTBK1, 2 μM; for CGAS level with siRNA knockdown of TBK1: vs DMSO. Here is the method:
786-O cells were transfected with scrambled siRNA control (siSCR) or siRNA targeting TBK1 (siTBK1), STING (siSTING) or CGAS (siCGAS). After 48 h cells were treated with DMSO or 2 μM of VPS34 inhibitor (Compound 1 or Compound 2) for 24 h. 786-O cells were washed in PBS and lysed in RIPA buffer (50 mM Tris HCl pH=7.4, 150 mM NaCl, 1% Triton X-100, 0.5% Na-deoxycholate, 0.1% SDS) containing protease inhibitor cocktail (#11836170001, Roche), and phosphatase inhibitor (#11836170001, Roche) for 10 min at 4° C. After centrifugation at 15000 rpm for 10 min at 4° C., the supernatant was obtained, and protein concentration was quantified using BCA assay (#23225, Thermo Fisher). Equal amounts were mixed with 0.1 M DTT and LDS Sample Buffer (#84788, Thermo Fisher), heated for 5 min at 90° C. before loading onto 4-12% Bis-Tris gels. Proteins were transferred to nitrocellulose membranes. Membranes were blocked in 5% non-fat dry milk in TBS with 0.05% Tween (TBS-T) for 1 h at RT, washed in TBS-T, and probed with primary antibodies shaking overnight at 4° C. After washing in TBS-T, membranes were incubated with IRDye 800CW goat anti-rabbit or IRDye 680RD donkey anti-mouse IgG (H+L) (#926-32211 and #926-68072, respectively, LI-COR, 1:10,000 dilution) secondary antibody in Intercept blocking buffer (#927-60001, LI-COR) for 1 h at RT. After washing in TBS-T, membranes were imaged using the Odyssey CLx (LI-COR). Band intensities were quantified using Image Studio Lite software version 5.2.5 (LI-COR).
A general note: Immunoblotting shows a protein as a band on a membrane.

The subject of the next test is YUMM 1.7 melanoma cells. As to the kind of experiment: qRT-PCR, combination with cGAMP, YUMM1.7 cells. The format is cell-based, Mouse. The following applies: 24 hours, 5 μM Compound 1 or 10 μM Compound 2, 10 mg/ml cGAMP. Here is the method:
as §1, with “YUMM1.7” for “4T1”

Test [3] concerns 4T1 breast cancer cells. The experiment in a line: qRT-PCR, combination with cGAMP, 4T1 cells. The format is cell-based, Mouse. The conditions noted are these: 24 hours, 5 μM Compound 1 or 10 μM Compound 2, 10 mg/ml cGAMP. Here is the method: as §1
(In general: In qPCR the cycle at which signal appears reflects the starting amount.)

Test [4] concerns CT26 colorectal cancer cells. As to the kind of experiment: qRT-PCR, combination with cGAMP, CT26 cells. The format is cell-based, Mouse. The following applies: 24 hours, 5 μM Compound 1 or 10 μM Compound 2, 10 mg/mL cGAMP. Here is the method: as §1, with “CT26” for “4T1”, “mg/mL” for “mg/ml”
For test [5], the system named is CT26 colorectal cancer cells. The experiment in a line: Cytokine secretion assay, combination with cGAMP, CT26 cells. The following applies: 24 hours, 5 μM Compound 1 or 10 μM Compound 2, 10 mg/mL cGAMP. The format is cell-based, mouse. Here is the method:
as §1, with “CT26” for “4T1”, “mg/mL” for “mg/ml”
as §2

Consider `C[C@@H]1COCCN1c1cc(N2CCCC[C@@H]2C(F)(F)F)[nH]c(=O)c1` [Compound 1, 4-((R)-3-methylmorpholino)-6-((R)-2-(trifluoromethyl)piperidin-1-yl)pyridin-2(1H)-one], for which, in the test on 4T1 breast cancer cells [1], the CCL5 protein secretion result is listed as “increased” and the CXCL10 protein secretion entry is “increased”. Further, in test [2], the CGAS level entry is on record as “mild increase”, the STING level entry is “increase”, the p-IRF3 level result is “strong increases” and the p-STAT1 level entry is “strong increases”. In addition, in test [2], the p-TKB1 level result is reported as “increase”; the “p-IRF3 and p-STAT1 levels with siRNA knockdown of CGAS” value is “complete loss”; the “p-TKB1 level with siRNA knockdown of CGAS” value is reported as “decrease”; the “p-IRF3 and p-STAT1 levels with siRNA knockdown of STING” value is “complete loss”. Also, in test [2], the “p-TBK1 level with siRNA knockdown of STING” value is given as “decrease”, the “STING level with siRNA knockdown of TBK1” value is “increase” and the “CGAS level with siRNA knockdown of TBK1” value is “increase”. For the same compound, in the test with YUMM 1.7 melanoma cells, the “CCL5 mRNA expression” value is reported as “increased” and the “CXCL10 mRNA expression” value is on record as “did not increase”. In addition, in the test on 4T1 breast cancer cells [3], the “CCL5 mRNA expression” value is on record as “increased” and the “CXCL10 mRNA expression” value is on record as “increased”. For the same compound, in test [4], the “CCL5 mRNA expression” value is “increased” and the “CXCL10 mRNA expression” value is “increased”. Moreover, in test [5], the CCL5 protein secretion entry is reported as “increased” and the CXCL10 protein secretion entry is “increased”.

As for `C[C@@H]1COCCN1c1cc(=O)n2c(n1)N(Cc1cncc(Cl)c1)[C@H](C(F)(F)F)CC2` [Compound 2, (S)-9-((5-chloropyridin-3-yl)methyl)-2-((R)-3-methylmorpholino)-8-(trifluoromethyl)-6,7,8,9-tetrahydro-4H-pyrimido[1,2-a]pyrimidin-4-one], in the test on 4T1 breast cancer cells [1], the CCL5 protein secretion result is recorded as “increased” and the CXCL10 protein secretion result is recorded as “increased”. Moreover, in test [2], the CGAS level result is “mild increase”, the STING level result is “increase”, the p-IRF3 level entry is reported as “strong increases” and the p-STAT1 level result is recorded as “strong increases”. Moreover, in test [2], the p-TKB1 level entry was “increase”; the “p-IRF3 and p-STAT1 levels with siRNA knockdown of CGAS” value is given as “complete loss”; the “p-TKB1 level with siRNA knockdown of CGAS” value was “decrease”; the “p-IRF3 and p-STAT1 levels with siRNA knockdown of STING” value is “complete loss”. Besides, in test [2], the “p-TBK1 level with siRNA knockdown of STING” value was “decrease”, the “STING level with siRNA knockdown of TBK1” value was “increase” and the “CGAS level with siRNA knockdown of TBK1” value is recorded as “increase”. Also, in the test with YUMM 1.7 melanoma cells, the “CCL5 mRNA expression” value is on record as “increased” and the “CXCL10 mRNA expression” value is “did not increase”. In the test on 4T1 breast cancer cells [3], the “CCL5 mRNA expression” value is “increased” and the “CXCL10 mRNA expression” value is listed as “increased”. For the same compound, in test [4], the “CCL5 mRNA expression” value is given as “increased” and the “CXCL10 mRNA expression” value is “increased”. For the same compound, in test [5], the CCL5 protein secretion result was “increased” and the CXCL10 protein secretion result is recorded as “increased”.
